# Data from patent publication US20240058288A1, “DRUG COCKTAIL FOR TREATMENT OF PARKINSON'S DISEASE, LEWY BODY DISEASE AND MULTIPLE SYSTEM ATROPHY” (ALETA NEUROSCIENCE, LLC, priority 2021, published 2024).
# Entries after “also recorded” stand apart in the source; their conditions may differ. Where two headings read alike, the source gives them in different places.
# Columns and labels:
# [1] = tested on: human dopaminergic neurons (iCell DopaNeurons); experiment: MPP+-induced neurotoxicity: cytolysis of iCell DopaNeurons; format: cell-based
# Description: (§1) We conducted an in vitro study of the drugs in Table 1 to evaluate the neuroprotective effects of 44 conditions of treatment (Table 2, experiments 1-41; 51-53) against MPP+-induced neurodegeneration toxicity on human dopaminergic neurons (iCell® DopaNeurons: iPS cell-derived human midbrain floorplate dopaminergic neurons). Further combinations (Table 2, experiments 42-50 and Table 3) are also disclosed.
# (§2) Three different measurements were made in the experiments. 1. Neurite length in mm is a measure of increase in dendrite length of neurons. […] 2. neurite branching is measure of dendrite branching. […] 3. Cytolysis of the cells is a measure of cell death. […] Experimental conditions were measured relative to the results of healthy cells in the studies.
# (§3) Procedure. iCell DOPA neurons were thawed and cultured following the provider's instructions in Brainphys medium+provided supplements+1% N2 supplement (Stemcell Technologies)+penicillin/streptomycin+Laminin. They were plated at 20000 cells per well of a 384 well plate (pre-coated with poly-D-lysine and Laminin) in 70 μL of growth medium. Cells were incubated at 37° C./5% CO2 in a humidified cell culture incubator. Half of the culture medium was changed twice a week.
# (§4) MPP+-induced neurotoxicity: 24 hours after neuronal plating, half of the medium was removed and the test compounds were applied with MPP+ treatment, both concentrated at 4×, were added to the wells. For each condition, six aliquots were added, corresponding to columns A-F in Table 2. Except for the NT/NT row, in each row, either the compound indicated dissolved in its vehicle noted in Table 1 was added, or only a vehicle was added as indicated. Column F is an indicator of whether MPP+ was added. If not, only the medium was added.
# (§5) For the evaluation of conditions 1-28, Neurite outgrowth was followed for subsequent 48 hours using an Incucyte Zoom platform with one phase contrast image every 4 hours, using a 20× objective. After 48 hours, the medium containing test compounds and MPP+ was removed and replaced by fresh medium containing a fluorescent cytolysis marker (red fluorescence) and a live cell marker (green fluorescence). For the evaluation of conditions 29-53, Neurite outgrowth was followed similarly for subsequent 72 hours after MPP+ was added.
# Data was normalized to control conditions as there is basal cytolysis in the cell culture after thawing.
# Fluorescently immuno-stained cells were imaged on a high content imaging platform. Individual segmentation of cells was performed by image analysis of the MAP2 and NeuN staining. The number of neurons and the neurite length were measured. The percentage of cytolyzed cells was also calculated.
# (§6) Statistical analysis. We used one-way ANOVA followed by Bonferroni's multiple comparisons test.
# [2] = tested on: TNF-α; experiment: LPS/ATP-induced TNF-α secretion by human microglia cells (Luminex); format: cell-based
# Description: (§7) In addition to the studies discussed above assessing activity of combinations of drugs on MPP+-induced neurodegeneration toxicity on human dopaminergic neurons and measuring neuronal growth and neurite branching, we also assessed combinations of drugs in reducing lipopolysaccharide (LPS, from E. coli)-induced neuroinflammation.
# (§8) Lipopolysaccharides are important outer membrane components of gram-negative bacteria such as E. coli and salmonella. They are large amphipathic glycoconjugates that typically consist of a lipid domain (hydrophobic) attached to a core oligosaccharide and a distal polysaccharide. LPS binds to Toll-like receptor 4 (TLR4) and activates microglia (51) which in turn increases secretion of pro-inflammatory cytokines such as interleukin-6 (IL-6), tumor necrosis factor-α (TNF-α), and CXCL1/GROα.
# (§9) Microglia cells were obtained from an iCell® Microglia kit, 01279 (Catalogue N° R1131) from FUJIFILM Cellular Dynamics. We followed the manufacturer's protocol for activation of the microglial cells with LPS/ATP to subsequently measure the effect of the study drugs on pro-inflammatory cytokines IL-6, TNF-α and CXCL1/GROα.
# (§10) All cell culture procedures were performed in aseptic conditions, under a laminar flow hood. Microglia were thawed and cultured following the provider's instructions. The microglia were plated at 50,000 cells per well of a Corning Primaria 96 well plate (Ref N° 353872) in 100 μL of growth medium. Cells were incubated at 37° C./5% CO2 in a humidified cell culture incubator.
# (§11) Three days after cell plating, the test or reference substances (25 μL of solutions at 5×) were applied 1 hour before LPS and ATP stimulation.
# (§12) One hour later, 12.5 μL of test or reference substances were added again at 2× concentrated followed by 12.5 μL of LPS at 12× concentration. Fifty microliters of ATP were introduced at 4× concentration, 5 h 30 min after incubation with LPS.
# (§13) Six hours after LPS incubation, the supernatant of each well was collected and centrifugated at 1000 g for 10 minutes to remove the cells and debris.
# (§14) Fifty microliters of supernatant from NT and LPS+ATP-treated wells were used to determine cytokine secretion (IL-6, TNF-α, CXCL1/GROα) by Luminex platform according to the provider's instructions. Samples were diluted prior to the assay to fit within the standard range if needed. Three wells were tested per each condition (Table 10). Cytokines levels in the supernatant were expressed in pg/mL. The data was analyzed using a One-Way ANOVA followed by Bonferroni test.
# [3] = tested on: IL-6; experiment: LPS/ATP-induced IL-6 secretion by human microglia cells (Luminex); format: cell-based; conditions: for anti-inflammatory effect on activated microglia, all three cytokines: LPS and ATP, IL-6, TNF-α, GROα together (FIG. 8, 9, 10)
# Description: as §7, §8, §9, §10, §11, §12, §13, §14
# [4] = chronic PD and DLBD mouse models; cited from earlier work
# [5] = tested on: CXCL1/GROα; experiment: LPS/ATP-induced CXCL1/GROα secretion by human microglia cells (Luminex); format: cell-based
# Description: as §7, §8, §9, §10, §11, §12, §13, §14
# [6] = tested on: human dopaminergic neurons (iCell DopaNeurons); experiment: MPP+-induced neurotoxicity: neurite outgrowth (neurite length, branch points) of iCell DopaNeurons, Incucyte; format: cell-based
# Description: as §1
# iCell DOPA neurons are neural floor plate-derived midbrain dopaminergic neurons generated from human induced pluripotent stem cells (iPSCs). Dopaminergic neurons, specifically those located in the floor plate-derived midbrain are implicated in neurological disorders such as Parkinson's disease, MSA and DLBD among others. Thus iCell DopaNeurons provide a highly relevant in vitro model to investigate these types of pathologies (42, 43). The iCellDopa neurons were supplied from FUJIFILM Cellular Dynamics.
# as §2, §3, §4, §5
# Each condition 1-41 and 51-53 was repeated in 8 wells of a 384 well plate, that is, each test condition studied in Table 2 was repeated eight times. NT/NT were cells in the standard medium only. Control/NT are the cells in the vehicle (as described above), with and without MPP+.
# Assay endpoints and data analysis. Phase contrast images were analyzed at each time point to determine the neurite length and number of branch points per mm^2. Kinetic data was plotted and kinetics were normalized by subtracting the value of the first data point (at time of treatment), allowing to measure changes in neurite outgrowth only from the onset of the treatment, starting at zero. Area Under Curve (AUC) of kinetic data was obtained and used for plotting compound's effects and perform statistical analyzes.
# as §6
# [7] = PD patients, small double-blind placebo controlled trial; cited from earlier work
# [8] = tested on: IL-1β; experiment: LPS/ATP-induced IL-1β in human microglia cells; format: cell-based; conditions: as compared with […] distilled water in presence of LPS and ATP
# [9] = tested on: PrP; conditions: cell-free aggregation assays, chronically and acutely infected cell cultures; cited from earlier work
# [10] = pre-treatment 50 mg/kg for 3 days; cited from earlier work
# [11] = LPS 100 ng/mL + ATP 5 mM, 6 h after LPS, TAK-242 2 μM, MCC950 10 μM
# [12] = LPS 100 ng/mL + ATP 5 mM, 6 h after LPS, three wells, TAK-242 2 μM, MCC950 10 μM
# [13] = as compared with […] distilled water in presence of LPS and ATP
compound,measurement,setting,value
Sodium Phenylbutyrate [PBA],"Cytolysis, %, Plate 1, Mean ± S.D.",[1],72.06 ± 1.77%
same,"TNF-α in supernatant, Replicate 1",[2]; [11],32.67 pg/mL
same,"TNF-α in supernatant, Replicate 2",[2]; [11],35.47 pg/mL
same,"TNF-α in supernatant, Replicate 3",[2]; [11],32.24 pg/mL
same,"TNF-α in supernatant, Mean ± S.D.",[2]; [12],33.46 ± 1.75 pg/mL
same,decrease of TNF-α concentration,[2]; [13],44%
same,"IL-6 in supernatant, Replicate 1",[3]; [11],396.23 pg/mL
same,"IL-6 in supernatant, Replicate 2",[3]; [11],363.94 pg/mL
same,"IL-6 in supernatant, Replicate 3",[3]; [11],305.53 pg/mL
same,"IL-6 in supernatant, Mean ± S.D.",[3]; [12],355.23 ± 45.97 pg/mL
same,"anti-inflammatory effect on activated microglia, all three cytokines",[3],Anti-inflammatory effects of the individual drugs were observed
same,decrease of IL-6 concentration,[3]; [13],49%
same,disease progression,[4],halted the disease progression
same,"CXCL1/GROα in supernatant, Replicate 1",[5]; [11],627.29 pg/mL
same,"CXCL1/GROα in supernatant, Replicate 2",[5]; [11],383.60 pg/mL
same,"CXCL1/GROα in supernatant, Replicate 3",[5]; [11],476.49 pg/mL
same,"CXCL1/GROα in supernatant, Mean ± S.D.",[5]; [12],495.79 ± 122.99 pg/mL
same,"Neurite Branching Data, Plate 1, Mean ± S.D.",[6],46742.8 ± 7107.5 per mm^2
same,"Neurite length - Baseline-corrected AUC (0-72 h), Mean",[6],853.7 mm/mm^2
same,"Neurite length data, plate 1, Mean",[6],1681.1 mm/mm^2
same,"Number of branch points per mm^2 - Baseline-corrected AUC (0-72 h), Mean",[6],41712.8 per mm^2
same,number of branches as compared with MPP+ alone,[6],significantly increased
same,number of branches increased as compared with MPP+ alone (control/MPP+),[6],89%
same,protective effect against MPP+,[6],"showed the protective effect, but to a substantially lesser effect than when combined; also recorded: showed protective effect, but it was not statistically significant"
"Cc1c(O)c(=O)ccn1C [DFP, Deferiprone]","Cytolysis, %, Plate 2, Mean ± S.D.","[1]; MPP+ 100 μM, Table 8.2 (FIG. 7C), PCI 30 μM",71.91 ± 1.28%
same,substantia nigra iron deposits (MRI) and motor scores of disease progression,[7],showed improvement
same,"Neurite Length Data, Mean ± S.D.","[6]; MPP+ 100 μM, Table 5.1 (FIG. 5A), conditions 17-28, AUC of kinetic data",874.5 ± 190.4 mm/mm^2
same,"Neurite Branching Data, Mean ± S.D.","[6]; MPP+ 100 μM, Table 5.2 (FIG. 5B), conditions 17-28, AUC of kinetic data",24282.5 ± 6612.9 per mm^2
same,"Neurite length, plate 2, Mean ± S.D.","[6]; MPP+ 100 μM, Table 6.2 (FIG. 7A), followed 72 hours, PCI 30 μM",1303.0 ± 378.7 mm/mm^2
same,"Neurite Branching Data, Plate 2, Mean ± S.D.","[6]; MPP+ 100 μM, Table 7.2 (FIG. 7B), followed 72 hours, PCI 30 μM",51711.3 ± 15178.4 per mm^2
same,effects on neurite outgrowth,"[6]; MPP+ 100 μM, vs MPP+ alone",no significant effects
CCOC(=O)C1=CCCC[C@H]1S(=O)(=O)Nc1ccc(F)cc1Cl [TAK-242],concentration of TNF-α,[2]; [13],significantly decreased
same,concentration of IL-6,[3]; [13],significantly decreased
same,concentration of GROα,[5]; [13],significantly decreased
same,concentration of IL-1β,[8],significantly decreased
"C[C@H](CCC(=O)NCCS(=O)(=O)O)[C@H]1CC[C@H]2[C@@H]3[C@@H](O)C[C@@H]4C[C@H](O)CC[C@]4(C)[C@H]3CC[C@]12C [TUDCA, tauroursodeoxycholic acid]","Cytolysis, %, Plate 1, Mean ± S.D.","[1]; MPP+ 100 μM, Table 8.1 (FIG. 6C), PCI 30 μM",70.69 ± 2.02%
same,"anti-inflammatory effect on activated microglia, all three cytokines",[3],Anti-inflammatory effects of the individual drugs were observed
same,PrP conversion,[9],substantially reduced PrP conversion
same,neurodegeneration of the nigral dopaminergic neurons caused by MPTP,[10],significantly reduced neurodegeneration
same,"Neurite length data, plate 1, Mean","[6]; MPP+ 100 μM, Table 6.1 (FIG. 6A), followed 72 hours, PCI 30 μM",1825.9 mm/mm^2
same,"Neurite Branching Data, Plate 1, Mean ± S.D.","[6]; MPP+ 100 μM, Table 7.1 (FIG. 6B), followed 72 hours, PCI 30 μM",58836.3 ± 9596.4 per mm^2
same,neurite length increased as compared with MPP+ alone,"[6]; MPP+ 100 μM, conditions 29-53, followed 72 hours (FIG. 6A, 7A)",43%
same,number of branches increased as compared with MPP+ alone,"[6]; MPP+ 100 μM, conditions 29-53, followed 72 hours (FIG. 6B, 7B)",60%
